Measurements taken from patent US20240246941A1, “SUBSTITUTED 4-(3-AMINOPROP-1-YL)AMINOQUINOLINE ANALOGS AS MODULATORS OF MELANOMA-ASSOCIATED ANTIGEN 11 UBIQUITIN LIGASE” (ST. JUDE CHILDREN'S RESEARCH HOSPITAL, INC., priority 2020, published 2024).

Biological target: MAGE-A11:PCF11 (Homo sapiens (Human), UniProt P43364)
Assay: TR-FRET single point screening at 15 μM
Type: binding
Parameters: unit not given here
In short: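 Single-point screen at 15 μM (0.25% DMSO) measuring disruption of GST-MAGEA11 (5 nM) binding to FAM-PCF11_4 peptide (200 nM) detected by Tb-anti-GST (5 nM). Buffer 50 mM Tris pH 7.5, 20 mM MgCl2, 0.1 mg/ml BSA, 1 mM DTT; 90 min at ~25 °C; 520/490 nm ratio converted to % inhibition versus controls.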

[1] = single point TR-FRET screening of quinoline compounds against MAGE-A11:PCF11, 15 μM
[2] = single point TR-FRET screening at 15 μM against MAGE-A11:PCF11

Chain of MAGE-A11:PCF11 (P43364 218-429): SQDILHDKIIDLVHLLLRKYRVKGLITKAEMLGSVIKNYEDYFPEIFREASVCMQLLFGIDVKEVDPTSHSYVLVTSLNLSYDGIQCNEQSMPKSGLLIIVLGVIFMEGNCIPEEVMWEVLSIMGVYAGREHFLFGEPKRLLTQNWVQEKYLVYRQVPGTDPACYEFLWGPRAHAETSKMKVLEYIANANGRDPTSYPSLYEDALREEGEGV

For `CCCN(CCCNc1c2ccc(Cl)cc2nc2ccc(OC)cc12)Cc1ccc(C)o1` [SJ000520932], the TR-FRET signal [1] was 0.9854.

`CCCN(CCCNc1c2ccc(Cl)cc2nc2ccc(OC)cc12)Cc1cc(OC)ccc1O` [SJ000520933] gave a TR-FRET signal [2] of −150.8.

`CCCN(CCCNc1c2ccc(Cl)cc2nc2ccc(OC)cc12)Cc1c(C)cc(C)cc1C` [SJ000520934] showed a TR-FRET signal [1] of −46.32.

Compound `CCCN(CCCNc1c2ccc(Cl)cc2nc2ccc(OC)cc12)Cc1ccco1` [SJ000520935] has a TR-FRET signal [2] of −202.6.

Compound `CCCN(CCCNc1c2ccc(Cl)cc2nc2ccc(OC)cc12)CC1CC1` [SJ000520936] has a TR-FRET signal [2] of −271.4.

Work on `CCCN(CCCNc1c2ccc(Cl)cc2nc2ccc(OC)cc12)Cc1ccoc1` [SJ000520937] yielded a TR-FRET signal [2] of −394.6.

For `CCCN(CCCNc1c2ccc(Cl)cc2nc2ccc(OC)cc12)CC1CCCCC1` [SJ000520938], the TR-FRET signal [2] was −163.9.

For `CCCN(CCCNc1c2ccc(Cl)cc2nc2ccc(OC)cc12)CC(CC)CC` [SJ000520939], the TR-FRET signal [2] was −160.3.

`CCCN(CCCNc1c2ccc(Cl)cc2nc2ccc(OC)cc12)Cc1ccc2c(c1)OCO2` [SJ000520940] showed a TR-FRET signal [2] of −193.5.

`CCCCCN(CCC)CCCNc1c2ccc(Cl)cc2nc2ccc(OC)cc12` [SJ000520941] showed a TR-FRET signal [2] of −210.3.

`CCCN(CCCNc1c2ccc(Cl)cc2nc2ccc(OC)cc12)Cc1ccc(F)c(F)c1` [SJ000520942] was tested, and the TR-FRET signal [1] was 0.9703.

For `CCCN(CCCNc1c2ccc(Cl)cc2nc2ccc(OC)cc12)Cc1ccc(OC)cc1` [SJ000520943], the TR-FRET signal [2] was −241.4.

Work on `CCCN(CCCNc1c2ccc(Cl)cc2nc2ccc(OC)cc12)Cc1ccccc1F` [SJ000520944] yielded a TR-FRET signal [2] of −118.6.

For `CCCN(CCCNc1c2ccc(Cl)cc2nc2ccc(OC)cc12)Cc1cccc(F)c1` [SJ000520945], the TR-FRET signal [1] was −90.13.

In the case of `CCCN(CCCNc1c2ccc(Cl)cc2nc2ccc(OC)cc12)Cc1ccc(F)cc1` [SJ000520946], the TR-FRET signal [2] is reported as −141.7.

In the case of `CCCN(CCCNc1c2ccc(Cl)cc2nc2ccc(OC)cc12)Cc1ccccc1[N+](=O)[O-]` [SJ000520947], the TR-FRET signal [2] is reported as −228.3.

In the case of `CCCN(CCCNc1c2ccc(Cl)cc2nc2ccc(OC)cc12)Cc1cccc([N+](=O)[O-])c1` [SJ000520948], the TR-FRET signal [1] is reported as −10.74.

For `CCCN(CCCNc1c2ccc(Cl)cc2nc2ccc(OC)cc12)Cc1ccc([N+](=O)[O-])cc1` [SJ000520949], the TR-FRET signal [1] was −9.039.

Compound `CCCN(CCCNc1c2ccc(Cl)cc2nc2ccc(OC)cc12)Cc1ccccc1OC` [SJ000520950] has a TR-FRET signal [2] of −271.1.

Work on `CCCN(CCCNc1c2ccc(Cl)cc2nc2ccc(OC)cc12)Cc1ccccc1C(=O)O` [SJ000520951] yielded a TR-FRET signal [2] of −258.6.

Compound `CCCN(CCCNc1c2ccc(Cl)cc2nc2ccc(OC)cc12)Cc1cccc2ccccc12` [SJ000520952] has a TR-FRET signal [1] of −40.77.

`CCCN(CCCNc1c2ccc(Cl)cc2nc2ccc(OC)cc12)Cc1ccc2ccccc2c1` [SJ000520953] showed a TR-FRET signal [2] of −129.1.

For `CCCN(CCCNc1c2ccc(Cl)cc2nc2ccc(OC)cc12)Cc1cccc(C)c1` [SJ000520954], the TR-FRET signal [2] was −157.8.

`CCCN(CCCNc1c2ccc(Cl)cc2nc2ccc(OC)cc12)Cc1ccc(N(C)C)cc1` [SJ000520955] gave a TR-FRET signal [1] of −10.06.

`CCCN(CCCNc1c2ccc(Cl)cc2nc2ccc(OC)cc12)Cc1ccc(Cl)cc1Cl` [SJ000520956] gave a TR-FRET signal [1] of 9.598.

In the case of `CCCN(CCCNc1c2ccc(Cl)cc2nc2ccc(OC)cc12)Cc1ccc(OC)c(OC)c1` [SJ000520957], the TR-FRET signal [2] is reported as −175.5.

Work on `CCCN(CCCNc1c2ccc(Cl)cc2nc2ccc(OC)cc12)CCCc1ccccc1` [SJ000520958] yielded a TR-FRET signal [2] of −267.2.

For `CCCN(CCCNc1c2ccc(Cl)cc2nc2ccc(OC)cc12)CC(C)CC` (stereo not shown) [SJ000520959], the TR-FRET signal [2] was −264.8.

With `CCCN(CCCNc1c2ccc(Cl)cc2nc2ccc(OC)cc12)Cc1cc(C)ccc1C` [SJ000520960] the TR-FRET signal [2] was −119.3.

`CCCN(CCCNc1c2ccc(Cl)cc2nc2ccc(OC)cc12)Cc1cccc(OC)c1` [SJ000520961] was tested, and the TR-FRET signal [2] was −244.6.

With `CCCN(CCCNc1c2ccc(Cl)cc2nc2ccc(OC)cc12)CCc1ccccc1` [SJ000520962] the TR-FRET signal [2] was −591.7.
